Data taken from patent publication US20080022467A1, “Disazo dyes and their preparation and use” (ILFORD Imaging Switzerland GmbH, priority 2006, published 2008).

Key:
[1] = Light stability of printed patches (Weather-Ometer, xenon lamp); format: physicochemical; design: key to Light Stability (Class) on Recording Sheet A / Light Stability (Class) on Recording Sheet B / Light Stability (Class) on Recording Sheet C / Light Stability (Class) on Recording Sheet D / Light Stability (Class) on Recording Sheet E / Light Stability (Class) on Recording Sheet F / Light Stability (Class) on Recording Sheet G: A: excellent; B: good; C: satisfactory; D: unsatisfactory; details: for Light Stability (Class) on Recording Sheet A: A: HP Printing Paper HPP 1122 (paper), 20° C., 50% relative humidity; for Light Stability (Class) on Recording Sheet A / Light Stability (Class) on Recording Sheet B / Light Stability (Class) on Recording Sheet C / Light Stability (Class) on Recording Sheet D / Light Stability (Class) on Recording Sheet E / Light Stability (Class) on Recording Sheet F / Light Stability (Class) on Recording Sheet G: 20 megalux hours; for Light Stability (Class) on Recording Sheet B: B: HP Premium Plus (polymer based); for Light Stability (Class) on Recording Sheet C: C: ILFORD Galerie Smooth Glossy (nanoporous); for Light Stability (Class) on Recording Sheet D: D: ILFORD Printasia Premium Photo Glossy Paper (nanoporous); for Light Stability (Class) on Recording Sheet E: E: ILFORD Galerie Classic Gloss Paper (polymer based); for Light Stability (Class) on Recording Sheet F: F: EPSON Premium Glossy Photo Paper (nanoporous); for Light Stability (Class) on Recording Sheet G: G: CANON Photo Paper Pro PR-101 (nanoporous); for light stability on all recording sheets (in words): summary of Table 4
Description: (§1) The present invention, as far as it relates to recording liquids, is illustrated by the following examples using the disazo dyes of Table 1 according to the invention and dyes representing the state of the art. For each dye, 100 g of recording liquid were prepared by heating the necessary amount of dye (2.0 g-5.0 g), 6.0 g of ethylene glycol, 3.0 g of propylene-1,2-glycol, 3.0 g of 1-methyl-2-pyrrolidone, 0.3 g of an aqueous solution (50%) of Olin® 10G (available from Arch Chemicals Inc., Norwalk, USA), 0.3 g of Surfinol® 465 (available from Air Products and Chemicals Inc., Allentown, USA) and 0.1 g of Mergal® K 10N (available from Riedel-de-Haën, Seelze, Germany) together with water at a temperature of 50° C. under stirring for approximately 1 hour. The resulting solution was cooled down to a temperature of 20° C., its value of pH was adjusted to 7.5 and the solution was passed through a Millipore® filter of 0.3 μm pore diameter. The dye quantity was adjusted in such a way that the optical density of the printed image was similar for all dyes.
(§2) Homogeneously colored square patches with an approximate density of 1.40 were then printed, using these recording liquids, with an ink jet printer Canon BJC 8500 onto the following recording sheets: • A: HP Printing Paper HPP 1122 (paper) • B: HP Premium Plus (polymer based recording sheet) • C: ILFORD Galerie Smooth Glossy (nanoporous recording sheet) • D: ILFORD Printasia Premium Photo Glossy Paper (nanoporous recording sheet) • E: ILFORD Galerie Classic Gloss Paper (polymer based recording sheet) • F: EPSON Premium Glossy Photo Paper (nanoporous recording sheet) • G: CANON Photo Paper Pro PR-101 (nanoporous recording sheet)
The printed samples were irradiated using a Weather-Ometer® Ci35A (available from Atlas Material Testing Technology, Chicago, USA) with a 6500 W xenon lamp at a temperature of 20° C. and relative humidity of 50% until an illumination of 20 megalux hours was reached. The density loss was measured with a densitometer Spectrolino®. The percent density loss of initial density gives an indication of the light stability of the dyes on the printed recording sheet.

[2] = Stability against degradation by ozone of printed patches; format: physicochemical; design: key: A: excellent; B: good; C: satisfactory; D: unsatisfactory; details: ozone 1 ppm, 30° C., 50% relative humidity; for Resistance against Degradation by Ozone (Class) on Recording Sheet C: C: ILFORD Galerie Smooth Glossy (nanoporous); for Resistance against Degradation by Ozone (Class) on Recording Sheet D: D: ILFORD Printasia Premium Photo Glossy Paper (nanoporous); for Resistance against Degradation by Ozone (Class) on Recording Sheet F: F: EPSON Premium Glossy Photo Paper (nanoporous); for Resistance against Degradation by Ozone (Class) on Recording Sheet G: G: CANON Photo Paper Pro PR-101 (nanoporous)
Description: as §1, §2
The optical density of the colored square patches was measured with a Spectrolino® densitometer. Afterwards, the printed samples were stored for a predetermined time (for example 48 hours) in an ozone chamber, model 903 (available from Satra/Hampden, Great Britain) at a temperature of 30° C., a relative humidity of the air of 50% and an ozone concentration of 1 ppm at a velocity of the circulating, ozone containing air of 13 mm/s. After storage, the samples were re-measured. The density differences of these two measurements, expressed as per cent of the initial density, are an indication of the amount of dye loss due to the exposure to ozone.

Row | SMILES | Light Stability (Class) on Recording Sheet A [1] | Light Stability (Class) on Recording Sheet B [1] | Light Stability (Class) on Recording Sheet C [1] | Light Stability (Class) on Recording Sheet D [1] | Light Stability (Class) on Recording Sheet E [1] | Light Stability (Class) on Recording Sheet F [1] | Light Stability (Class) on Recording Sheet G [1] | Resistance against Degradation by Ozone (Class) on Recording Sheet C [2] | Resistance against Degradation by Ozone (Class) on Recording Sheet D [2] | Resistance against Degradation by Ozone (Class) on Recording Sheet F [2] | Resistance against Degradation by Ozone (Class) on Recording Sheet G [2] | light stability on all recording sheets (in words) [1]
1 | O=S(=O)([O-])CCCSc1nc(Nc2ccc(N=Nc3cc(S(=O)(=O)[O-])c4cccc(S(=O)(=O)[O-])c4c3)cc2)nc(Nc2ccc(N=Nc3cc(S(=O)(=O)[O-])c4cccc(S(=O)(=O)[O-])c4c3)cc2)n1.[Na+].[Na+].[Na+].[Na+].[Na+] [Dye No. 10] | B | A | A | B | B | B | B | A | A | A | A | 
2 | O=S(=O)([O-])CCNc1nc(Nc2ccc(N=Nc3cc(S(=O)(=O)[O-])c4cccc(S(=O)(=O)[O-])c4c3)cc2)nc(Nc2ccc(N=Nc3cc(S(=O)(=O)[O-])c4cccc(S(=O)(=O)[O-])c4c3)cc2)n1.[Na+].[Na+].[Na+].[Na+].[Na+] [Dye No. 11] | B | A | A | B | B | A | A | A | A | A | A | 
3 | CN(CCS(=O)(=O)[O-])c1nc(Nc2ccc(N=Nc3cc(S(=O)(=O)[O-])c4cccc(S(=O)(=O)[O-])c4c3)cc2)nc(Nc2ccc(N=Nc3cc(S(=O)(=O)[O-])c4cccc(S(=O)(=O)[O-])c4c3)cc2)n1.[Na+].[Na+].[Na+].[Na+].[Na+] [Dye No. 14] | B | A | A | B | B | B | B | A | A | A | A | 
4 | O=S(=O)([O-])CCCSc1nc(Nc2ccc(N=Nc3ccc4cc(S(=O)(=O)[O-])cc(S(=O)(=O)[O-])c4c3)cc2)nc(Nc2ccc(N=Nc3ccc4cc(S(=O)(=O)[O-])cc(S(=O)(=O)[O-])c4c3)cc2)n1.[Na+].[Na+].[Na+].[Na+].[Na+] [Dye No. 15] | B | A | B | B | B | B | B | B | A | A | A | 
5 | O=S(=O)([O-])CCNc1nc(Nc2ccc(N=Nc3ccc4cc(S(=O)(=O)[O-])cc(S(=O)(=O)[O-])c4c3)cc2)nc(Nc2ccc(N=Nc3ccc4cc(S(=O)(=O)[O-])cc(S(=O)(=O)[O-])c4c3)cc2)n1.[Na+].[Na+].[Na+].[Na+].[Na+] [Dye No. 16] | B | A | B | B | B | B | B | A | A | A | A | 
6 | CN(CCS(=O)(=O)[O-])c1nc(Nc2ccc(N=Nc3ccc4cc(S(=O)(=O)[O-])cc(S(=O)(=O)[O-])c4c3)cc2)nc(Nc2ccc(N=Nc3ccc4cc(S(=O)(=O)[O-])cc(S(=O)(=O)[O-])c4c3)cc2)n1.[Na+].[Na+].[Na+].[Na+].[Na+] [Dye No. 17] | B | A | A | B | B | B | B | B | A | A | A | 

Continued, in another order:

Row | Light Stability (Class) on Recording Sheet A [1] | Light Stability (Class) on Recording Sheet B [1] | Light Stability (Class) on Recording Sheet C [1] | Light Stability (Class) on Recording Sheet D [1] | Light Stability (Class) on Recording Sheet E [1] | Light Stability (Class) on Recording Sheet F [1] | Light Stability (Class) on Recording Sheet G [1] | Resistance against Degradation by Ozone (Class) on Recording Sheet C [2] | Resistance against Degradation by Ozone (Class) on Recording Sheet D [2] | Resistance against Degradation by Ozone (Class) on Recording Sheet F [2] | Resistance against Degradation by Ozone (Class) on Recording Sheet G [2] | SMILES | light stability on all recording sheets (in words) [1]
7 | B | A | B | B | B | B | B | A | A | A | A | O=C([O-])c1cc(Nc2nc(Nc3ccc(N=Nc4cc(S(=O)(=O)[O-])c5cccc(S(=O)(=O)[O-])c5c4)cc3)nc(Nc3ccc(N=Nc4cc(S(=O)(=O)[O-])c5cccc(S(=O)(=O)[O-])c5c4)cc3)n2)cc(C(=O)[O-])c1.[Na+].[Na+].[Na+].[Na+].[Na+].[Na+] [Dye No. 18] | 
8 | A | A | B | B | B | A | B | A | B | A | A | O=S(=O)([O-])c1cc(/N=N/c2ccc(Nc3nc(NCCO)nc(Nc4ccc(/N=N/c5cc(S(=O)(=O)[O-])c6cccc(S(=O)(=O)[O-])c6c5)cc4)n3)cc2)cc2c(S(=O)(=O)[O-])cccc12.[Na+].[Na+].[Na+].[Na+] [Dye No. I, reference compound] | excellent or good light stability
9 | B | D | B | B | B | A | A | A | B | A | A | Cc1cc(Nc2nc(NCCO)nc(Nc3ccc(/N=N/c4cc(S(=O)(=O)[O-])c5cccc(S(=O)(=O)[O-])c5c4)c(C)c3)n2)ccc1/N=N/c1cc(S(=O)(=O)[O-])c2cccc(S(=O)(=O)[O-])c2c1.[Na+].[Na+].[Na+].[Na+] [Dye No. II, Direct Yellow 86, reference compound] | satisfactory or even unsatisfactory light stability
